# Measurements as given in patent US9518081B2, “Peptide libraries” (BICYCLE THERAPEUTICS LIMITED, priority 2009, dated 2016).
# *1 amine or outer side, *2 acyl side, *3 side chain or, on linkers, in order; H or OH if unused. Where a SMILES comes first, the peptide text is derived from it. Bridges are numbered along the chain shown (N, C = ends). TBMB = c1c(C[*:1])cc(C[*:3])cc1C[*:2]
# Test system: chymotrypsin
# Assay: Phage ELISA after DTT reduction and chymotrypsin treatment (resistance to proteolysis)
# Type: in vitro ADME
# Conditions: 5 mM DTT 20 min, chymotrypsin 50 ug/ml 2 min
# Description: 0.6 μg/mL of biotinylated MDM2 peptide (res 2-125) was immobilized on a streptavidin-coated plate (Roche). Plate was blocked with PBSM (but 4% in milk powder) and linear or TBMB-conjugated phage (10^7 TU/well in PBSM in the presence or absence of 5 mM DTT) was incubated on the plate for 50 min at room temperature. Similarly, phage was first reduced in 5 mM DTT for 20 min, treated with chymotrypsin (50 ug/ml in PBS) for 2 min, mixed with PBSM (final concentration) and incubated on the plate for 50 min at room temperature. Phage was detected using an anti-M13-HRP monoclonal antibody (1:5000, Amersham).
# Note that 5 mM DTT can reduce the disulphide bonds of chymotrypsin leading to its inactivation as a protease. […] In other experiments we have used up to 0.2 mM-5 mM TCEP in the presence of chymotrypsin (0.1 mg/ml-1 mg/ml) for 2 minutes at room temperature in PBS. These conditions also allowed us to distinguish between the linear and cyclic peptides on phage.
row,SMILES,resistance of MDM2 binding to proteolysis
1,CC(C)C[C@@H]1NC(=O)[C@H](CCC(=O)O)NC(=O)[C@@H](NC(=O)[C@@H](N)CO)CSCc2cc3cc(c2)CSC[C@H](NC(=O)[C@H](CCCCN)NC(=O)[C@@H]2CCCN2C(=O)[C@H](CC(N)=O)NC(=O)[C@H](Cc2c[nH]c4ccccc24)NC1=O)C(=O)N[C@@H](CCCNC(=N)N)C(=O)N[C@@H](CC(C)C)C(=O)N[C@@H](CO)C(=O)N1CCC[C@H]1C(=O)N[C@@H](Cc1ccccc1)C(=O)N[C@@H](CCC(=O)O)C(=O)N[C@H](C(=O)N[C@@H](CCCCN)C(=O)NCC(=O)O)CSC3 [PEP10] (H-SCELWNPKCRLSPFECKG-OH; linker 2-9-16 via TBMB (inferred)),resistant to proteolysis
2,CC(C)[C@@H]1NC(=O)[C@@H](NC(=O)[C@@H](N)CO)CSCc2cc3cc(c2)CSC[C@H](NC(=O)[C@H]([C@@H](C)O)NC(=O)[C@H](Cc2c[nH]c4ccccc24)NC(=O)CNC(=O)[C@H](Cc2ccccc2)NC(=O)[C@H](CCCNC(=N)N)NC1=O)C(=O)N[C@@H](CC(=O)O)C(=O)N[C@@H](CC(N)=O)C(=O)N[C@@H](CO)C(=O)N[C@@H](Cc1c[nH]c2ccccc12)C(=O)N[C@@H](Cc1c[nH]cn1)C(=O)NCC(=O)N[C@H](C(=O)N[C@@H](CCCCN)C(=O)NCC(=O)O)CSC3 [PEP48] (H-SCVRFGWTCDNSWHGCKG-OH; linker 2-9-16 via TBMB (inferred)),resistant to proteolysis
